# Laboratory results taken from the supplement of paper PMC10307832.
# What was measured:
# Experiment in all cases: relative viability (nuclei count vs DMSO), 5 days (fraction); higher = more cells survive
# NCI-H1395 = system: NCI-H1395
# How it was run: (§1)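 One day after seeding in 1536-well plates, lung cancer cell lines were dosed by pin tool. Dosing was either single-drug or a fixed anchor-drug dose plus five library-drug doses (not always all listed) in √10 steps. After 5 days, nuclei were stained in one fix-and-stain step and counted on 4× images, and relative viability is the nuclei count of treated wells over that of vehicle wells, given as the median of duplicate plates.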
# HOP-62 = system: HOP-62
# How it was run: as §1
# NCI-H838 = system: NCI-H838
# How it was run: as §1
# NCI-H1793 = system: NCI-H1793
# How it was run: as §1
# NCI-H322M = system: NCI-H322M
# How it was run: as §1
# NCI-H2009 = system: NCI-H2009
# How it was run: as §1
# UMC-11 = system: UMC-11
# How it was run: as §1
# PC-14 = system: PC-14
# How it was run: as §1
# NCI-H647 = system: NCI-H647
# How it was run: as §1
# NCI-H2228 = system: NCI-H2228
# How it was run: as §1
# NCI-H358 = system: NCI-H358
# How it was run: as §1
# NCI-H1755 = system: NCI-H1755
# How it was run: as §1
# NCI-H1355 = system: NCI-H1355
# How it was run: as §1
# NCI-H1993 = system: NCI-H1993
# How it was run: as §1
# COR-L 105 = system: COR-L 105
# How it was run: as §1
# COR-L23 = system: COR-L23
# How it was run: as §1
# SK-MES-1 = system: SK-MES-1
# How it was run: as §1
# NCI-H1734 = system: NCI-H1734
# How it was run: as §1
# NCI-H2347 = system: NCI-H2347
# How it was run: as §1
# NCI-H2170 = system: NCI-H2170
# How it was run: as §1
# HARA = system: HARA
# How it was run: as §1
# EKVX = system: EKVX
# How it was run: as §1
compound,measurement,setting,value
COc1cc(N2CCC(C(N)=O)CC2)ccc1Nc1nc(N)c(Cl)c(Nc2ccccc2S(=O)(=O)C(C)C)n1 [HG-5-88-01] + CS(=O)(=O)N1CCN(Cc2cc3nc(-c4cccc5[nH]ncc45)nc(N4CCOCC4)c3s2)CC1 [Pictilisib] (partner 1 µM),relative viability,NCI-H1395; first compound 0.04 µM,0.582
same,relative viability,NCI-H1395; first compound 0.1265 µM,0.587
same,relative viability,NCI-H1395; first compound 0.4 µM,0.598
same,relative viability,NCI-H1395; first compound 1.265 µM,0.584
same,relative viability,NCI-H1395; first compound 4 µM,0.523
same,relative viability,HOP-62; first compound 0.04 µM,0.493
same,relative viability,HOP-62; first compound 0.1265 µM,0.765
same,relative viability,HOP-62; first compound 0.4 µM,0.827
same,relative viability,HOP-62; first compound 1.265 µM,0.892
same,relative viability,HOP-62; first compound 4 µM,0.936
same,relative viability,NCI-H838; first compound 0.04 µM,0.312
same,relative viability,NCI-H838; first compound 0.1265 µM,0.503
same,relative viability,NCI-H838; first compound 0.4 µM,0.337
same,relative viability,NCI-H838; first compound 1.265 µM,0.393
same,relative viability,NCI-H838; first compound 4 µM,0.383
same,relative viability,NCI-H1793; first compound 0.1265 µM,0.336
same,relative viability,NCI-H1793; first compound 0.4 µM,0.3
same,relative viability,NCI-H1793; first compound 1.265 µM,0.426
same,relative viability,NCI-H1793; first compound 4 µM,0.308
same,relative viability,NCI-H322M; first compound 0.04 µM,0.461
same,relative viability,NCI-H322M; first compound 0.1265 µM,0.471
same,relative viability,NCI-H322M; first compound 0.4 µM,0.512
same,relative viability,NCI-H322M; first compound 1.265 µM,0.441
same,relative viability,NCI-H322M; first compound 4 µM,0.449
same,relative viability,NCI-H2009; first compound 0.04 µM,0.771
same,relative viability,NCI-H2009; first compound 0.1265 µM,0.882
same,relative viability,NCI-H2009; first compound 0.4 µM,0.693
same,relative viability,NCI-H2009; first compound 1.265 µM,0.793
same,relative viability,NCI-H2009; first compound 4 µM,0.631
same,relative viability,UMC-11; first compound 0.04 µM,0.506
same,relative viability,UMC-11; first compound 0.1265 µM,0.937
same,relative viability,UMC-11; first compound 0.4 µM,0.692
same,relative viability,UMC-11; first compound 1.265 µM,0.815
same,relative viability,UMC-11; first compound 4 µM,0.49
same,relative viability,PC-14; first compound 0.04 µM,0.79
same,relative viability,PC-14; first compound 0.1265 µM,0.862
same,relative viability,PC-14; first compound 0.4 µM,0.658
same,relative viability,PC-14; first compound 1.265 µM,0.168
same,relative viability,PC-14; first compound 4 µM,0.108
same,relative viability,NCI-H647; first compound 0.04 µM,0.342
same,relative viability,NCI-H647; first compound 0.1265 µM,0.407
same,relative viability,NCI-H647; first compound 0.4 µM,0.453
same,relative viability,NCI-H647; first compound 1.265 µM,0.371
same,relative viability,NCI-H647; first compound 4 µM,0.443
same,relative viability,NCI-H2228; first compound 0.04 µM,0.215
same,relative viability,NCI-H2228; first compound 0.1265 µM,0.177
same,relative viability,NCI-H2228; first compound 0.4 µM,0.248
same,relative viability,NCI-H2228; first compound 1.265 µM,0.144
same,relative viability,NCI-H2228; first compound 4 µM,0.157
same,relative viability,NCI-H358; first compound 0.04 µM,0.292
same,relative viability,NCI-H358; first compound 0.1265 µM,0.384
same,relative viability,NCI-H358; first compound 0.4 µM,0.302
same,relative viability,NCI-H358; first compound 1.265 µM,0.225
same,relative viability,NCI-H358; first compound 4 µM,0.301
same,relative viability,NCI-H1755; first compound 0.1265 µM,0.508
same,relative viability,NCI-H1755; first compound 0.4 µM,0.438
same,relative viability,NCI-H1755; first compound 1.265 µM,0.53
same,relative viability,NCI-H1755; first compound 4 µM,0.399
same,relative viability,NCI-H1355; first compound 0.04 µM,0.253
same,relative viability,NCI-H1355; first compound 0.1265 µM,0.462
same,relative viability,NCI-H1355; first compound 0.4 µM,0.412
same,relative viability,NCI-H1355; first compound 1.265 µM,0.414
same,relative viability,NCI-H1355; first compound 4 µM,0.299
same,relative viability,NCI-H1993; first compound 0.04 µM,0.689
same,relative viability,NCI-H1993; first compound 0.1265 µM,0.829
same,relative viability,NCI-H1993; first compound 0.4 µM,0.606
same,relative viability,NCI-H1993; first compound 1.265 µM,1.04
same,relative viability,NCI-H1993; first compound 4 µM,0.873
same,relative viability,COR-L 105; first compound 0.04 µM,0.348
same,relative viability,COR-L 105; first compound 0.1265 µM,0.537
same,relative viability,COR-L 105; first compound 0.4 µM,0.336
same,relative viability,COR-L 105; first compound 1.265 µM,0.309
same,relative viability,COR-L 105; first compound 4 µM,0.342
same,relative viability,COR-L23; first compound 0.04 µM,0.629
same,relative viability,COR-L23; first compound 0.1265 µM,0.725
same,relative viability,COR-L23; first compound 0.4 µM,0.608
same,relative viability,COR-L23; first compound 1.265 µM,0.371
same,relative viability,COR-L23; first compound 4 µM,0.353
same,relative viability,SK-MES-1; first compound 0.04 µM,0.37
same,relative viability,SK-MES-1; first compound 0.1265 µM,0.373
same,relative viability,SK-MES-1; first compound 0.4 µM,0.354
same,relative viability,SK-MES-1; first compound 1.265 µM,0.282
same,relative viability,SK-MES-1; first compound 4 µM,0.299
same,relative viability,NCI-H1734; first compound 0.04 µM,0.405
same,relative viability,NCI-H1734; first compound 0.1265 µM,0.423
same,relative viability,NCI-H1734; first compound 0.4 µM,0.411
same,relative viability,NCI-H1734; first compound 1.265 µM,0.358
same,relative viability,NCI-H1734; first compound 4 µM,0.476
same,relative viability,NCI-H2347; first compound 0.04 µM,0.603
same,relative viability,NCI-H2347; first compound 0.1265 µM,0.645
same,relative viability,NCI-H2347; first compound 0.4 µM,0.683
same,relative viability,NCI-H2347; first compound 4 µM,0.471
same,relative viability,NCI-H2170; first compound 0.04 µM,0.269
same,relative viability,NCI-H2170; first compound 0.1265 µM,0.33
same,relative viability,NCI-H2170; first compound 0.4 µM,0.28
same,relative viability,NCI-H2170; first compound 1.265 µM,0.26
same,relative viability,NCI-H2170; first compound 4 µM,0.261
same,relative viability,HARA; first compound 0.04 µM,0.438
same,relative viability,HARA; first compound 0.1265 µM,0.358
same,relative viability,HARA; first compound 0.4 µM,0.414
same,relative viability,HARA; first compound 1.265 µM,0.411
same,relative viability,HARA; first compound 4 µM,0.301
same,relative viability,EKVX; first compound 0.04 µM,0.444
same,relative viability,EKVX; first compound 0.1265 µM,0.426
same,relative viability,EKVX; first compound 0.4 µM,0.372
same,relative viability,EKVX; first compound 4 µM,0.355
